Experimental data from ChEMBL document CHEMBL3885861, “Open TG-GATES”.

Organism: Rattus norvegicus
Assay: Open TG-GATES - Regimen: Single
Format: toxicity, organism-based, Sprague-Dawley
Set-up: regimen Single, gender Male, age 6 weeks
Conditions: in vivo, po, 100 mg/kg, route gavage, dose level Low; for APTT / Bas / Eos / Fbg / Hb / Ht / Lym / MCH / MCHC / MCV / Mono / Neu / PT / Plat / RBC / Ret / WBC: tissue Blood; for KIDNEY_L / KIDNEY_R / KIDNEY_TOTAL: tissue Kidney; for LIVER: tissue Liver; for A/G / ALP / ALT / AST / BUN / CRE / Ca / Cl / DBIL / GLC / IP / K / LDH / Na / PL / RALB / TBIL / TC / TG / TP / gamma-GTP: tissue Plasma

CCC1(c2ccccc2)C(=O)NC(=O)NC1=O [PHENOBARBITAL]
TERMINAL_BW (3 h): 225.5 g
APTT (3 h): 20.6 s
Bas (3 h): 0%
Eos (3 h): 1%
Fbg (3 h): 220.6 mg/dL
Hb (3 h): 13.7 g/dL
Ht (3 h): 37.8%
Lym (3 h): 76.6%
MCH (3 h): 22.2 pg
MCHC (3 h): 36.1%
MCV (3 h): 61.3 fL
Mono (3 h): 3.4%
Neu (3 h): 18.2%
PT (3 h): 12 s
Plat (3 h): 126.2 x10_4/uL
RBC (3 h): 616.6 x10_4/ul
Ret (3 h): 7.8%
WBC (3 h): 85.2 x10_2/uL
KIDNEY_L (3 h): 1 g
KIDNEY_R (3 h): 1 g
KIDNEY_TOTAL (3 h): 2.1 g
LIVER (3 h): 10.1 g
A/G (3 h): 1.6
ALP (3 h): 991 IU/L
ALT (3 h): 33.4 IU/L
AST (3 h): 67.4 IU/L
BUN (3 h): 8.4 mg/dL
CRE (3 h): 0.3 mg/dL
Ca (3 h): 10.7 mg/dL
Cl (3 h): 101.4 meq/L
DBIL (3 h): 0.064 mg/dL
GLC (3 h): 179.4 mg/dL
IP (3 h): 9.7 mg/dL
K (3 h): 4.4 meq/L
LDH (3 h): 168.4 IU/L
Na (3 h): 139.8 meq/L
PL (3 h): 156.6 mg/dL
RALB (3 h): 3.3 g/dL
TBIL (3 h): 0.1 mg/dL
TC (3 h): 83.4 mg/dL
TG (3 h): 83.8 mg/dL
TP (3 h): 5.3 g/dL
gamma-GTP (3 h): 1 IU/L
TERMINAL_BW (6 h): 222.4 g
APTT (6 h): 18 s
Bas (6 h): 0.2%
Eos (6 h): 0.8%
Fbg (6 h): 237.8 mg/dL
Hb (6 h): 13.7 g/dL
Ht (6 h): 37.9%
Lym (6 h): 79.8%
MCH (6 h): 21.4 pg
MCHC (6 h): 36.2%
MCV (6 h): 59 fL
Mono (6 h): 3.4%
Neu (6 h): 15%
PT (6 h): 11.8 s
Plat (6 h): 124.2 x10_4/uL
RBC (6 h): 643 x10_4/ul
Ret (6 h): 8.1%
WBC (6 h): 90.7 x10_2/uL
KIDNEY_L (6 h): 1 g
KIDNEY_R (6 h): 0.9 g
KIDNEY_TOTAL (6 h): 1.9 g
LIVER (6 h): 9.4 g
A/G (6 h): 1.6
ALP (6 h): 1012 IU/L
ALT (6 h): 31.8 IU/L
AST (6 h): 64.8 IU/L
BUN (6 h): 7.6 mg/dL
CRE (6 h): 0.4 mg/dL
Ca (6 h): 10.7 mg/dL
Cl (6 h): 100.4 meq/L
DBIL (6 h): 0.074 mg/dL
GLC (6 h): 191.8 mg/dL
IP (6 h): 10.1 mg/dL
K (6 h): 3.9 meq/L
LDH (6 h): 173.2 IU/L
Na (6 h): 139.6 meq/L
PL (6 h): 138.8 mg/dL
RALB (6 h): 3.3 g/dL
TBIL (6 h): 0.1 mg/dL
TC (6 h): 71 mg/dL
TG (6 h): 68.8 mg/dL
TP (6 h): 5.5 g/dL
gamma-GTP (6 h): 0.8 IU/L
TERMINAL_BW (9 h): 220.3 g
APTT (9 h): 19.6 s
Bas (9 h): 0.4%
Eos (9 h): 0.8%
Fbg (9 h): 215.6 mg/dL
Hb (9 h): 13.8 g/dL
Ht (9 h): 38.2%
Lym (9 h): 74.6%
MCH (9 h): 21.6 pg
MCHC (9 h): 36.2%
MCV (9 h): 59.6 fL
Mono (9 h): 2.6%
Neu (9 h): 20.6%
PT (9 h): 12.4 s
Plat (9 h): 124.9 x10_4/uL
RBC (9 h): 640.6 x10_4/ul
Ret (9 h): 7.4%
WBC (9 h): 90 x10_2/uL
KIDNEY_L (9 h): 1 g
KIDNEY_R (9 h): 1 g
KIDNEY_TOTAL (9 h): 1.9 g
LIVER (9 h): 9.2 g
A/G (9 h): 1.6
ALP (9 h): 848.2 IU/L
ALT (9 h): 25.2 IU/L
AST (9 h): 60.4 IU/L
BUN (9 h): 10.4 mg/dL
CRE (9 h): 0.3 mg/dL
Ca (9 h): 10.4 mg/dL
Cl (9 h): 101 meq/L
DBIL (9 h): 0.064 mg/dL
GLC (9 h): 196.4 mg/dL
IP (9 h): 8.7 mg/dL
K (9 h): 3.9 meq/L
LDH (9 h): 154.4 IU/L
Na (9 h): 140.4 meq/L
PL (9 h): 129.8 mg/dL
RALB (9 h): 3.4 g/dL
TBIL (9 h): 0.1 mg/dL
TC (9 h): 64.4 mg/dL
TG (9 h): 55.6 mg/dL
TP (9 h): 5.5 g/dL
gamma-GTP (9 h): 0.6 IU/L
TERMINAL_BW (24 h): 234.5 g
APTT (24 h): 21 s
Bas (24 h): 0.8%
Eos (24 h): 1%
Fbg (24 h): 217.8 mg/dL
Hb (24 h): 13.5 g/dL
Ht (24 h): 37.2%
Lym (24 h): 77.8%
MCH (24 h): 22.2 pg
MCHC (24 h): 36.2%
MCV (24 h): 61.3 fL
Mono (24 h): 2.6%
Neu (24 h): 17.8%
PT (24 h): 11.8 s
Plat (24 h): 122.9 x10_4/uL
RBC (24 h): 607.6 x10_4/ul
Ret (24 h): 6.6%
WBC (24 h): 114.9 x10_2/uL
KIDNEY_L (24 h): 1.1 g
KIDNEY_R (24 h): 1.1 g
KIDNEY_TOTAL (24 h): 2.3 g
LIVER (24 h): 12 g
A/G (24 h): 1.6
ALP (24 h): 1006.8 IU/L
ALT (24 h): 39 IU/L
AST (24 h): 70.6 IU/L
BUN (24 h): 14.4 mg/dL
CRE (24 h): 0.4 mg/dL
Ca (24 h): 10.8 mg/dL
Cl (24 h): 102.4 meq/L
DBIL (24 h): 0.062 mg/dL
GLC (24 h): 183.4 mg/dL
IP (24 h): 7.3 mg/dL
K (24 h): 3.8 meq/L
LDH (24 h): 181.4 IU/L
Na (24 h): 142 meq/L
PL (24 h): 132.6 mg/dL
RALB (24 h): 3.4 g/dL
TBIL (24 h): 0.1 mg/dL
TC (24 h): 64 mg/dL
TG (24 h): 105.4 mg/dL
TP (24 h): 5.6 g/dL
gamma-GTP (24 h): 0.8 IU/L
